From patent US12297246B2, “Interleukin-15 activity antagonist peptide” (CENTRO DE INGENIERÍA GENÉTICA Y BIOTECNOLOGÍA, priority 2017, dated 2025)
Entries after “also recorded” stand apart in the source; their conditions may differ. Where a SMILES comes first, the peptide text is derived from it. Bridges are numbered along the chain shown (N, C = ends). Roman numbers before positions name the chains, in order. Where no end group is shown, it is not given here. [ ]: non-standard residue; d: D form.

Tests used:
CTLL-2 cells = assay: IL-15-induced CTLL-2 cell proliferation assay; assay type: cell-based; conditions: for IC50: fixed IL-15 concentration of 300 μg/mL, colorimetric assay
Description: The proliferation of the CTLL-2 cell line is dependent on IL-15. Molecular entities that bind to IL-15 or its receptor subunit inhibit the proliferation of this cell line. To evaluate the antagonist capacity of peptides designed and obtained in the present invention, was followed the procedure described by Santos et al in 2012. Peptide 1 was included in all assays.
The realization of this colorimetric assay allowed calculating the IC50 value of each peptide, for a fixed IL-15 concentration of 300 μg/mL.

IL-15/IL-15Rα complex = molecular target: T1, IL-15/IL-15Rα complex (Homo sapiens, UniProt Q13261); assay: Inhibition of IL-15/IL-15Rα complex formation (ELISA-type test); assay type: binding
T1 construct: all evaluated peptides recognized IL-15Rα immobilized on the ELISA plate
Experimental: Once the synthetic peptides were obtained and characterized, their binding capacity to IL-15Rα was determined. This evaluation was carried out by means of an ELISA type test. In addition, the % inhibition of the formation of the IL-15/IL-15Rα complex presented by each peptide was calculated. Both the procedure for the ELISA-type test and the equation used to calculate the % inhibition of the formation of the IL-15/IL-15Rα complex are detailed in the article published by Santos et al in 2012 (Santos A. et al. J. Pept. Sci. 2012; 18: 25-29).

[1] = Solubility of the peptides

T1 sequence (Q13261 31-205 limits assumed, one chain of several): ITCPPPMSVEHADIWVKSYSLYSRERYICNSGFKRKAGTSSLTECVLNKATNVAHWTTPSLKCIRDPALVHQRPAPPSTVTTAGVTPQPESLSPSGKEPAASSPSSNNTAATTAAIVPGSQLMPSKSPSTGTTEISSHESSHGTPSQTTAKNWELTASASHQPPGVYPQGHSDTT

Row | Molecule | IC50 (CTLL-2 cells) [µM] | antagonist effect compared with Peptide 1 (CTLL-2 cells; IL-15-induced CTLL-2 proliferation) | % inhibition of IL-15/IL-15Rα complex formation (IL-15/IL-15Rα complex) [%] | solubility [1]
1 | CSCC[C@H](NC(=O)[C@H](C)NC(=O)[C@@H](NC(=O)[C@@H](NC(=O)[C@H](N)CCCCN)C(C)C)[C@@H](C)O)C(=O)N[C@@H](CCCCN)C(=O)N[C@@H](CS)C(=O)N[C@@H](Cc1ccccc1)C(=O)N[C@@H](CC(C)C)C(=O)N[C@@H](CC(C)C)C(N)=O [Peptide 2] (H-[dK]VTAMKCFLL-NH2) | 100 | – | – | –
2 | CSCC[C@H](NC(=O)[C@H](C)NC(=O)[C@@H](NC(=O)[C@H](NC(=O)[C@@H](N)CCCCN)C(C)C)[C@@H](C)O)C(=O)N[C@@H](CCCCN)C(=O)N[C@@H](CS)C(=O)N[C@@H](Cc1ccccc1)C(=O)N[C@@H](CC(C)C)C(=O)N[C@@H](CC(C)C)C(N)=O [Peptide 3] (H-K[dV]TAMKCFLL-NH2) | 142 | – | – | –
3 | CSCC[C@H](NC(=O)[C@@H](C)NC(=O)[C@@H](NC(=O)[C@@H](NC(=O)[C@@H](N)CCCCN)C(C)C)[C@@H](C)O)C(=O)N[C@@H](CCCCN)C(=O)N[C@H](CS)C(=O)N[C@@H](Cc1ccccc1)C(=O)N[C@@H](CC(C)C)C(=O)N[C@@H](CC(C)C)C(N)=O [Peptide 15] (H-KVT[dA]MK[dC]FLL-NH2; N-terminus assumed) | 296 | equal or less antagonist effect than the original peptide; also recorded: less active than Peptide 1 | – | –
4 | CSCC[C@H](NC(=O)[C@H](C)NC(=O)[C@@H](NC(=O)[C@@H](NC(=O)[C@@H](N)CCCCN)C(C)C)[C@@H](C)O)C(=O)N[C@H](CCCCN)C(=O)N[C@@H](CS)C(=O)N[C@@H](Cc1ccccc1)C(=O)N[C@@H](CC(C)C)C(=O)N[C@@H](CC(C)C)C(N)=O [Peptide 7] (H-KVTAM[dK]CFLL-NH2) | 168 | – | – | –
5 | CSCC[C@H](NC(=O)[C@H](C)NC(=O)[C@@H](NC(=O)[C@@H](NC(=O)[C@@H](N)CCCCN)C(C)C)[C@@H](C)O)C(=O)N[C@@H](CCCCN)C(=O)N[C@@H](CS)C(=O)N[C@@H](Cc1ccccc1)C(=O)N[C@@H](CC(C)C)C(=O)N[C@H](CC(C)C)C(N)=O [Peptide 11] (H-KVTAMKCFL[dL]-NH2) | 133 | – | – | –
6 | CSCC[C@H](NC(=O)[C@H](C)NC(=O)[C@@H](NC(=O)[C@@H](NC(=O)[C@@H](N)CCCCN)C(C)C)[C@@H](C)O)C(=O)N[C@@H](CCCCN)C(=O)N[C@H](CS)C(=O)N[C@@H](Cc1ccccc1)C(=O)N[C@@H](CC(C)C)C(=O)N[C@@H](CC(C)C)C(N)=O [Peptide 8] (H-KVTAMK[dC]FLL-NH2) | 103 | – | – | –
7 | CSCC[C@H](NC(=O)[C@@H](C)NC(=O)[C@@H](NC(=O)[C@@H](NC(=O)[C@H](N)CCCCN)C(C)C)[C@@H](C)O)C(=O)N[C@@H](CCCCN)C(=O)N[C@@H](CSSC[C@H](NC(=O)[C@H](CCCCN)NC(=O)[C@H](CCSC)NC(=O)[C@@H](C)NC(=O)[C@@H](NC(=O)[C@@H](NC(=O)[C@H](N)CCCCN)C(C)C)[C@@H](C)O)C(=O)N[C@@H](Cc1ccccc1)C(=O)N[C@@H](CC(C)C)C(=O)N[C@@H](CC(C)C)C(N)=O)C(=O)N[C@@H](Cc1ccccc1)C(=O)N[C@@H](CC(C)C)C(=O)N[C@@H](CC(C)C)C(N)=O [Peptide 14] (I: H-[dK]VT[dA]MKCFLL-NH2 / II: H-[dK]VT[dA]MKCFLL-NH2; disulfide I:7-II:7) | 12 | – | 92 | completely soluble
8 | CSCC[C@H](NC(=O)[C@H](C)NC(=O)[C@@H](NC(=O)[C@@H](NC(=O)[C@@H](N)CCCCN)C(C)C)[C@@H](C)O)C(=O)N[C@@H](CCCCN)C(=O)N[C@@H](CS)C(=O)N[C@@H](Cc1ccccc1)C(=O)N[C@H](CC(C)C)C(=O)N[C@@H](CC(C)C)C(N)=O [Peptide 10] (H-KVTAMKCF[dL]L-NH2) | 134 | – | – | –
9 | CSCC[C@H](NC(=O)[C@H](C)NC(=O)[C@H](NC(=O)[C@@H](NC(=O)[C@@H](N)CCCCN)C(C)C)[C@H](C)O)C(=O)N[C@@H](CCCCN)C(=O)N[C@@H](CS)C(=O)N[C@@H](Cc1ccccc1)C(=O)N[C@@H](CC(C)C)C(=O)N[C@@H](CC(C)C)C(N)=O [Peptide 4] (H-KV[dT]AMKCFLL-NH2) | 159 | – | – | –
10 | KVTAMKCFLL-NH2 [Peptide 1, reference compound] | 130 | – | – | –
11 | CSCC[C@@H](NC(=O)[C@H](C)NC(=O)[C@@H](NC(=O)[C@@H](NC(=O)[C@@H](N)CCCCN)C(C)C)[C@@H](C)O)C(=O)N[C@@H](CCCCN)C(=O)N[C@@H](CS)C(=O)N[C@@H](Cc1ccccc1)C(=O)N[C@@H](CC(C)C)C(=O)N[C@@H](CC(C)C)C(N)=O [Peptide 6] (H-KVTA[dM]KCFLL-NH2) | 292 | – | – | –
12 | CSCC[C@H](NC(=O)[C@H](C)NC(=O)[C@@H](NC(=O)[C@@H](NC(=O)[C@@H](N)CCCCN)C(C)C)[C@@H](C)O)C(=O)N[C@@H](CCCCN)C(=O)N[C@@H](CS)C(=O)N[C@H](Cc1ccccc1)C(=O)N[C@@H](CC(C)C)C(=O)N[C@@H](CC(C)C)C(N)=O [Peptide 9] (H-KVTAMKC[dF]LL-NH2) | 118 | – | – | –
13 | CSCC[C@H](NC(=O)[C@@H](C)NC(=O)[C@@H](NC(=O)[C@@H](NC(=O)[C@@H](N)CCCCN)C(C)C)[C@@H](C)O)C(=O)N[C@@H](CCCCN)C(=O)N[C@@H](CS)C(=O)N[C@@H](Cc1ccccc1)C(=O)N[C@@H](CC(C)C)C(=O)N[C@@H](CC(C)C)C(N)=O [Peptide 5] (H-KVT[dA]MKCFLL-NH2) | 28 | – | 92 | completely soluble
14 | CSCC[C@H](NC(=O)[C@@H](C)NC(=O)[C@@H](NC(=O)[C@@H](NC(=O)[C@@H](N)CCCCN)C(C)C)[C@@H](C)O)C(=O)N[C@@H](CCCCN)C(=O)N[C@@H](CSSC[C@H](NC(=O)[C@H](CCCCN)NC(=O)[C@H](CCSC)NC(=O)[C@@H](C)NC(=O)[C@@H](NC(=O)[C@@H](NC(=O)[C@@H](N)CCCCN)C(C)C)[C@@H](C)O)C(=O)N[C@@H](Cc1ccccc1)C(=O)N[C@@H](CC(C)C)C(=O)N[C@@H](CC(C)C)C(N)=O)C(=O)N[C@@H](Cc1ccccc1)C(=O)N[C@@H](CC(C)C)C(=O)N[C@@H](CC(C)C)C(N)=O [Peptide 12] (I: H-KVT[dA]MKCFLL-NH2 / II: H-KVT[dA]MKCFLL-NH2; disulfide I:7-II:7) | 8 | – | 96 | completely soluble
15 | CSCC[C@H](NC(=O)[C@@H](C)NC(=O)[C@@H](NC(=O)[C@@H](NC(=O)[C@H](N)CCCCN)C(C)C)[C@@H](C)O)C(=O)N[C@@H](CCCCN)C(=O)N[C@@H](CS)C(=O)N[C@@H](Cc1ccccc1)C(=O)N[C@@H](CC(C)C)C(=O)N[C@@H](CC(C)C)C(N)=O [Peptide 13] (H-[dK]VT[dA]MKCFLL-NH2) | 29 | – | 89 | completely soluble
